In publication PMC11205194 (Marine Drugs, 2024):

Tested on: SARS-CoV-2 3CLpro
Conditions: pH 7; for Inhibition of free 3CL protease by synthesized peptides: SD

Compound	Inhibition of free 3CL protease by synthesized peptides [%]	Inhibition of the 3CLpro control's enzymatic activity [%]
VVGVVVY [PEP 1, Val-Val-Gly-Val-Val-Val-Tyr]	9.3 ± 5.7	–
EVLEFFKYIE [PEP 5]	0.01 ± 3.8	–
COc1cccc2[nH]c(C(=O)N[C@@H](CC(C)C)C(=O)N[C@@H](C[C@@H]3CCNC3=O)C(=O)CO)cc12 [PF-00835231, reference compound]	–	94.9
EVLEFFKYLE [PEP 7]	7.6 ± 1.3	–
